Reference: US7153841B2, “Metal substituted non-centrosimmetrical phthalocyanine analogues, their preparation and use in photodynamic therapy and in vivo diagnostic” (L. Molteni & C. Dei Fratelli Alitti Societa Di Esercizio …, priority 2001, dated 2006)

How the values were obtained:
Format in all cases: cell-based
[1] = system: C. albicans; assay: Photoinactivation of C. albicans (CFU vs. concentration, FIG. 1)
Text: FIG. 1 represents the variation of the colony forming units (CFU) of C. albicans vs. the concentration (μM) of the compounds according to Examples 7 and 8,indicated in the FIGURE as MRLP 090 and MRLP 091 respectively.
The following example refer to the activity against C. albicans.

[2] = system: human fibroblasts; assay: Lack of non specific toxicity on human fibroblasts, with or without red light; conditions: DMEM 10% FCS, up to 40 μM
Protocol: The lack of non specific toxicity has been assessed by using human fibroblasts cultured for six days. Aliquots of the compound according to Ex. 4 at various concentrations have been added to cells in DMEM 10% FCS. After treatment the cell were irradiated for 10 min with red light (Intralux 4000 equipped with filter BP700/100Chroma Technology Corp.). In a parallel experiment cells were treated with the same amounts of compound of Ex. 4, however no light was provided.

[3] = molecular target: T1, repeat D of type III FN like of human Tenascin (TN) (Homo sapiens, UniProt P24821); assay: Binding specificity of labelled antibody by immunohystochemistry on human fibroblasts (GM6114); conditions: shown by immunohystochemistry experiments
T1 construct: determined by immunohystochemistry on human fibroblasts (GM6114); endogenous in cells; host or cells: human fibroblasts (GM6114)
Text: Monoclonal Antibody α-D specific for the repeat D of type III FN like of human Tenascin (TN) (Balza et al. FEBS, 332,39 1993) has been labelled by using the compound of Ex. 4.
The labelling procedure has been carried out with the monoclonal bound to the Sepharose 4b immobilised antigen, represented from the recombinant TN containing repeats B,C,D type III FN-like.

T1 sequence (P24821 23-2201): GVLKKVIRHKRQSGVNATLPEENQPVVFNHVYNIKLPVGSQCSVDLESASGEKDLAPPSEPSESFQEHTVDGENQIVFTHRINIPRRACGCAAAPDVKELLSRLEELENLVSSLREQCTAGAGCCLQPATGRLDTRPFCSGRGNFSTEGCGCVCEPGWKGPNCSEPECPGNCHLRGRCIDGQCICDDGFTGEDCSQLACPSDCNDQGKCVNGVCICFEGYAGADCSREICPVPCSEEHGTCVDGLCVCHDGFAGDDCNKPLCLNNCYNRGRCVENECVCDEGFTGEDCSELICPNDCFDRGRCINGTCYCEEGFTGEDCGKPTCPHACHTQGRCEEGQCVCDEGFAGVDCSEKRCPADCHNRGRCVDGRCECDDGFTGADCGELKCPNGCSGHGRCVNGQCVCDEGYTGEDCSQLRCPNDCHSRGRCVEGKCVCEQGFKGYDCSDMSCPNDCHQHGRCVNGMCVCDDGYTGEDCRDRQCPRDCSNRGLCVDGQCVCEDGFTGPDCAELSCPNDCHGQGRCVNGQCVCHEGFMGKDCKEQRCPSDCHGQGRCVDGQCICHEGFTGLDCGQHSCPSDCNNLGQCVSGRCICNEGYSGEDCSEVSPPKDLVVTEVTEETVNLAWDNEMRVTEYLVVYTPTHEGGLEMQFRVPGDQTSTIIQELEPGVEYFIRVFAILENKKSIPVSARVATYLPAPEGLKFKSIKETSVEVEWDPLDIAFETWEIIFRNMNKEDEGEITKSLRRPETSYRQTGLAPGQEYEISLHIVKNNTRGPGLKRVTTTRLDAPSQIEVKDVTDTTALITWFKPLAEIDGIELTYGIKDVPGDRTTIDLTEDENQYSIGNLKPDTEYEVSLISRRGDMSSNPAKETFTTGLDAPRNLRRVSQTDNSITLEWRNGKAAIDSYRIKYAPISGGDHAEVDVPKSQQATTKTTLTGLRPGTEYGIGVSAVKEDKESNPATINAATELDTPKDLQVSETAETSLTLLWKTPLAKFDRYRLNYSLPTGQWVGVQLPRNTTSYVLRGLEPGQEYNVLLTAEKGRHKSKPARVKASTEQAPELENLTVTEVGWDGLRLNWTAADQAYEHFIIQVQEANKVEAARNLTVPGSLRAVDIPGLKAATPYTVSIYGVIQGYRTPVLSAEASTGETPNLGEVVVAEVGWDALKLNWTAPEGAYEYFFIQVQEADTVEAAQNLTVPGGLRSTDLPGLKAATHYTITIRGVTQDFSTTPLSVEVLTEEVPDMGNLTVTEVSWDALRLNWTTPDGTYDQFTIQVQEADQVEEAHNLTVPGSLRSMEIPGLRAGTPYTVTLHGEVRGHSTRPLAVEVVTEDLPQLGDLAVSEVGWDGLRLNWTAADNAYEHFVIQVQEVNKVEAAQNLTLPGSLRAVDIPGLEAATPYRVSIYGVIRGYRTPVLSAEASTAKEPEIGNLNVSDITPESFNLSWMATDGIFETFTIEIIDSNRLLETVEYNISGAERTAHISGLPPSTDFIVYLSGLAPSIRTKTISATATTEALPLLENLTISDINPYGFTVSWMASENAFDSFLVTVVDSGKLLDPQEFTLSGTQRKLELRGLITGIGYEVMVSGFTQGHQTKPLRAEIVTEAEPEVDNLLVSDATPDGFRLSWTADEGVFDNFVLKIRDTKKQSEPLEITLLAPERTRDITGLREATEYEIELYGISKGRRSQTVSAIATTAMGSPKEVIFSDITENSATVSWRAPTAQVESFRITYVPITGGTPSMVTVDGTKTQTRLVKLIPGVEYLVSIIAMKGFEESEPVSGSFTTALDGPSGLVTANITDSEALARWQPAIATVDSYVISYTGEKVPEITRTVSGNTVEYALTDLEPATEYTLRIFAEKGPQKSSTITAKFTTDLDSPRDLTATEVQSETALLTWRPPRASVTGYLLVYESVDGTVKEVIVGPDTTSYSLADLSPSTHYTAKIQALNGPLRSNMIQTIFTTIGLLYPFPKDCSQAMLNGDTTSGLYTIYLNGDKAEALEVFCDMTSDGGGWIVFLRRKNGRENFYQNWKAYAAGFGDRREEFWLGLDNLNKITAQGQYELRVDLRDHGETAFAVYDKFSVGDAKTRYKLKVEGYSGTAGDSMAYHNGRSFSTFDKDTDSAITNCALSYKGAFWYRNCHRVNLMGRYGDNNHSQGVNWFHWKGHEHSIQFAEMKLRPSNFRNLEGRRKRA

Substance	photoinactivation of C. albicans (variation of colony forming units vs. concentration, μM) [1]	mortality or morphology in comparison to not treated-not irradiated cells ([2]; irradiated 10 min with red light)	mortality or morphology in comparison to not treated-not irradiated cells ([2]; no light provided)	aggregation or protein denaturation of the antibody on labelling [3]
2-[(4-hydroxycarbonyl)phenoxy]-8(11),15(18),22(25)-tri[3-(trimethylammonium) phenoxy]zinc(II) phthalocyanine triiodide [Example 8]	photoinactivation			
2-[(4-hydroxycarbonyl)phenoxy]-1(4),8(11),15(18),22(25)-tri[2 -(morfolin-1-yl) ethoxy] zinc(II)phthalocyanine [Example 4]		No differences in mortality or morphology	No differences in mortality or morphology	does not cause aggregation to occur or protein denaturation
2-[(4-hydroxycarbonyl)phenoxy]-9(10),16(17),23(24)-tri[3-(trimethylammonium) phenoxy]zinc(II)phthalocyanine triiodide [Example 7]	photoinactivation			
